# Target: T1, α-amylase (α-salivary amylase)
# T1 construct: gene AMY1A
# Assay: enzyme inhibition assay with soluble starch and […],5-dinitrosalicylic acid
# Type: biochemical, Homo sapiens
smiles,measurement,value
"OC[C@H]1NC[C@H](O)[C@@H](O)[C@@H]1O [DNJ, 1-Deoxynojirimycin]",α-Amylase Experiment / IC50,22.69 µg/mL
